From patent US7595330B2, “Benzimidazole thiophene compounds” (SmithKline Beecham Corporation, priority 2005, dated 2009)
Read-outs that look alike come from different tables or passages of the source.

Columns and labels:
PLK1 kinase domain = biological target: T1, PLK1 kinase domain (Homo sapiens, UniProt P53350); assay: Assay for inhibition of PLK1 (SPA, 33P-ATP, biotinylated peptide substrate); assay type: biochemical; details: 1 μM ATP, 2 nM PLK1 kinase domain; read-out: PLK1 pIC50 (converted)
T1 construct: made in house; host or cells: baculovirus infected T. ni cells
Method: I. Assay for Inhibition of PLK1
All procedures were performed at 4° C. Cells were lysed in 50 mM HEPES, 200 mM NaCl, 50 mM imidazole, 5% glycerol; pH 7.5. The homogenate was centrifuged at 14K rpm in a SLA-1500 rotor for 1 h and the supernatant filtered through a 1.2 micron filter. The supernatant was loaded onto a Nickel chelating Sepharose (Amersham Pharmacia) column and washed with lysis buffer. Protein was eluted using 20%, 30% and 100% buffer B steps where buffer B is 50 mM HEPES, 200 mM NaCl, 300 mM imidazole, 5% glycerol; pH 7.5. Fractions containing PLK were determined by SDS-PAGE. Fractions containing PLK were diluted five-fold with 50 mM HEPES, 1 mM DTT, 5% glycerol; pH 7.5, then loaded on an SP Sepharose (Amersham Pharmacia) column. After washing the column with 50 mM HEPES, 1 mM DTT, 5% glycerol; pH 7.5, PLK was step eluted with 50 mM HEPES, 1 mM DTT, 500 mM NaCl; 5% glycerol; pH 7.5. PLK was concentrated using a 10 kDa molecular weight cutoff membrane and then loaded onto a Superdex 200 gel filtration (Amersham Pharmacia) column equilibrated in 25 mM HEPES, 1 mM DTT, 500 mM NaCl, 5% glycerol; pH 7.5. Fractions containing PLK were determined by SDS-PAGE. PLK was pooled, aliquoted and stored at −80° C. Samples were quality controlled using mass spectrometry, N-terminal sequencing and amino acid analysis.
B. Enzyme activity +/− inhibitors was determined as follows: All measurements were obtained under conditions where signal production increased linearly with time and enzyme. Test compounds were added to white 384-well assay plates (0.1 μL for 10 μL and some 20 μL assays, 1 μL for some 20 μL assays) at variable known concentrations in 100% DMSO. DMSO (1-5% final, as appropriate) and EDTA (65 mM in reaction) were used as controls.
Reaction Mix (10 or 20 μL) was quickly added to each well immediately following addition of enzyme via automated liquid handlers and incubated 1-1.5 h at 22° C. The 20 μL enzymatic reactions were stopped with 50 μL of stop mix (50 mM EDTA, 4.0 mg/ml Streptavidin SPA beads in Standard Dulbecco's PBS (without Mg^2+ and Ca^2+), 50 μM ATP) per well. The 10 μL reactions were stopped with 10 μL of stop mix (50 mM EDTA, 3.0 mg/mL Streptavidin-coupled SPA Imaging Beads (“LeadSeeker”) in Standard Dulbecco's PBS (without Mg^2+ and Ca^2+), 50 μM ATP) per well. Plates were sealed with clear plastic seals, spun at 500×g for 1 min or settled overnight, and counted in Packard TopCount for 30 seconds/well (regular SPA) or imaged using a Viewlux imager (LeadSeeker SPA). Signal above background (EDTA controls) was converted to percent inhibition relative to that obtained in control (DMSO-only) wells.

HCT116 = assay: Methylene blue growth inhibition assay, HCT116; assay type: cell-based; details: Homo sapiens
Method: (§1) II. Methylene Blue Growth Inhibition Assay—Inhibition of Cell Proliferation by PLK1 Inhibitors
(§2) Generally, exponentially growing cell lines of different tumor origins, cultured in appropriate media containing 10% fetal bovine serum at 37° C. in a 5% CO2 incubator were plated at low density (less than 2000 cells/well) in 96-well plates. […]. Seventy two hours post-treatment, cell numbers were determined using 100 μl per well of methylene blue (Sigma M9140) (0.5% in 50:50 Ethanol:water). Stain was incubated at room temperature for 30 minutes before plates were rinsed and dye solubilized in 1% N-lauroyl sarcosine, sodium salt, (Sigma L5125, in PBS) (further details of a methylene blue assay are described below). Plates were read on a microplate reader, measuring the OD at 620 nm.
(§3) . The data are shown in Table 1 below and represent a compilation of several different experiments, each performed using the general parameters outlined above, although minor variations may have been employed in some instances.
(§4) In one assay, normal human foreskin fibroblasts (HFF), human colon (HCT116, RKO), lung (H460, A549) and breast (MCF7) tumor cell lines were cultured in high glucose DMEM (Life Technologies) containing 10% fetal bovine serum (FBS) at 37° C. in a humidified 5% CO2, 95% air incubator. Cells were harvested using trypsin/EDTA, counted using a haemocytometer, and plated in 100 μL of culture media per well, at the following densities, in a 96-well tissue culture plate (Falcon 3075): HFF 5,000 cells/well, HCT116 3,000 cells/well, RKO 2,500 cells/well, H460 2,500 cells/well, A549 5,000 cells/well, MCF7 4,000 cells/well. The next day, compounds were diluted in low glucose DMEM containing 100 μg/mL gentamicin, at twice the final required concentration, from 10 mM stock solutions in DMSO. 100 μL/well of these dilutions were added to the 100 μL of media currently in the assay plates. Medium containing 0.6% DMSO was added to control wells. The final concentration of DMSO in all wells was 0.3%. Cells were incubated at 37° C., 5% CO2 for 72 h. Medium was removed by aspiration. Cell biomass was estimated by staining cells with 80 μL per well methylene blue (Sigma M9140, 0.5% in 50:50 ethanol:water), and incubation at room temperature for 30-60 min. Stain was removed by aspiration and the plates rinsed by immersion in water, then air-dried. To release stain from the cells, 100 μL of solubilization solution was added (1% N-lauroyl sarcosine, Sodium salt, Sigma L5125, in PBS), and plates were shaken gently for about 30 min. Optical density at 620 nm was measured on a microplate reader. Percent inhibition of cell growth was calculated relative to vehicle treated control wells. […].

H460 = assay: Methylene blue growth inhibition assay, H460; assay type: cell-based; details: Homo sapiens
Method: as §1, §2, §3, §4

MCF7 = assay: Methylene blue growth inhibition assay, MCF7; assay type: cell-based; details: Homo sapiens
Method: as §1, §2, §3, §4

A549 = assay: Methylene blue growth inhibition assay, A549; assay type: cell-based; details: Homo sapiens
Method: as §1, §2, §3, §4

RKO = assay: Methylene blue growth inhibition assay, RKO; assay type: cell-based; details: Homo sapiens, 72 h
Method: as §1, §2, §3, §4

[1] = system: normal human foreskin fibroblasts (HFF); assay: Methylene blue growth inhibition assay, HFF; assay type: cell-based; details: Fibroblast, 72 h
Method: as §1, §2, §3, §4

human plasma proteins = assay: Protein binding to human plasma proteins using equilibrium dialysis; assay type: in vitro ADME; details: pH 7.4, equilibrium dialysis 6 h, 37° C.
Method: III. Determination of Protein Binding to Human Plasma Proteins Using Equilibrium Dialysis
96 Well Plate (High Throughput Dialysis): Stock solutions of compounds were spiked into human plasma at a target concentration of 2000 ng/mL. The mixture was inverted gently several times to insure homogeneity and triplicate 50 μL aliquots were collected to verify initial concentrations. Following assembly of dialysis plate (HTDialysis membrane strips, molecular weight cut off limit of 12,000-14,000 daltons), spiked plasma (150 μL) was placed in the donor compartment of the well and Phosphate Buffered Saline pH 7.4 (150 μL) in the receiver compartment. Eight wells were set up per compound and plasma type. Plate was placed in a 37° C. incubator on a plate shaker. Following the 6 h incubation period, the plate was removed. Single 50 μL aliquots from each donor and receiver compartment (per well) were analyzed. Sample analysis was by LC/MS/MS (results reported as Drug Peak Area/Internal Standard Peak Area ratios). Protein binding assay can also be performed using dialysis cells instead of HT Dialysis 96 well plates. In Table 1, % Protein Binding, +=>98%; ++=95-98%: +++=<95%.

[2] = High throughput solubility assay; assay type: physicochemical; details: aqueous buffer, pH 7.4, 0.05M phosphate buffer
Method: IV. High Throughput Solubility Assay
Two samples are prepared for each compound. One (the standard sample) contains the compound at a fixed concentration of 20 μM in an aqueous/organic mixed solvent cocktail. The other (the test sample) contains the compound at a maximum concentration of 200 μM in pH 7.4, 0.05M phosphate buffer and shaking for 24 h. The test sample is filtered by 0.45μ filter and then spun for 10 min to remove any undissolved solid. HPLC analyses are preformed on these samples. The peak areas are used for computing solubility.

[3] = HCT-116, methylene blue, 72 h, HCT116, read-out: HCT116 IC50
[4] = NCI-H460, methylene blue, 72 h, H460, read-out: H460 IC50
[5] = methylene blue, 72 h, MCF7, read-out: MCF7 IC50
[6] = methylene blue, 72 h, A549, read-out: A549 IC50
[7] = methylene blue, read-out: RKO IC50
[8] = methylene blue, HFF normal fibroblasts, read-out: HFF IC50

T1 sequence (P53350 21-346): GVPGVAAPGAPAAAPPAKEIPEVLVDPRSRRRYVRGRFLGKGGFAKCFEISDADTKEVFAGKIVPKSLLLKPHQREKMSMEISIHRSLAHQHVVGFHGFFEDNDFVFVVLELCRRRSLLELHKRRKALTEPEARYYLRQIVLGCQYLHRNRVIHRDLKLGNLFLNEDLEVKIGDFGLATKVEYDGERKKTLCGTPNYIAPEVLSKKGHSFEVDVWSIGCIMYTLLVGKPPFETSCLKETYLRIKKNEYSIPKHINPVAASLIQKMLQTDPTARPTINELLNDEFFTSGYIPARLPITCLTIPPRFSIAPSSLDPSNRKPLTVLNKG

## CS(=O)(=O)c1ccc2ncn(-c3cc(OCc4ccccc4C(F)(F)F)c(C(N)=O)s3)c2c1 [Com. Ex 121, reference compound]
PLK1 kinase domain
  IC50: 10 to 1000 nM
HCT116; [3]
  IC50: > 1 µM
H460; [4]
  IC50: > 1 µM
MCF7; [5]
  IC50: > 1 µM
A549; [6]
  IC50: > 1 µM
RKO; [7]
  IC50: > 1 µM
[1]; [8]
  IC50: > 1 µM
Human plasma proteins
  fraction unbound at 6 h, 2000 ng/mL: 0.02 to 0.05

## COc1cc2ncn(-c3cc(OC(C)c4ccccc4Cl)c(C(N)=O)s3)c2cc1OC (stereo not shown) [Com. Ex 126, reference compound]
HCT116; HCT-116, 72 h, read-out: HCT116 IC50 (μM)
  IC50: < 0.1 µM
H460; NCI-H460, 72 h, read-out: H460 IC50 (μM)
  IC50: < 0.1 µM
MCF7; MCF7, 72 h, read-out: MCF7 IC50 (μM)
  IC50: > 1 µM
A549; A549, 72 h, read-out: A549 IC50 (μM)
  IC50: < 0.1 µM
RKO; read-out: RKO IC50 (μM)
  IC50: < 0.1 µM
[1]; read-out: HFF IC50 (μM)
  IC50: 0.1 to 1 µM
Human plasma proteins
  fraction unbound at 6 h, 2000 ng/mL: < 0.02

## COc1cc2ncn(-c3cc(OC(C)c4ccccc4C(F)(F)F)c(C(N)=O)s3)c2cc1OC (stereo not shown) [Com. Ex 127, reference compound]
PLK1 kinase domain
  IC50: < 10 nM
HCT116; [3]
  IC50: 0.1 to 1 µM
H460; [4]
  IC50: < 0.1 µM
MCF7; [5]
  IC50: 0.1 to 1 µM
A549; [6]
  IC50: < 0.1 µM
RKO; [7]
  IC50: < 0.1 µM
[1]; [8]
  IC50: > 1 µM
Human plasma proteins
  fraction unbound at 6 h, 2000 ng/mL: < 0.02
[2]
  solubility at 24 h: < 30 µM

## COc1cc2ncn(-c3cc(OCc4ccccc4C(F)(F)F)c(C(N)=O)s3)c2cc1OCCN1CCN(C)CC1 [Com. Ex 136, reference compound]
PLK1 kinase domain
  IC50: 10 to 1000 nM
HCT116; [3]
  IC50: 0.1 to 1 µM
H460; [4]
  IC50: 0.1 to 1 µM
MCF7; [5]
  IC50: 0.1 to 1 µM
RKO; [7]
  IC50: 0.1 to 1 µM
[1]; [8]
  IC50: > 1 µM
Human plasma proteins
  fraction unbound at 6 h, 2000 ng/mL: > 0.05

## NC(=O)c1sc(-n2cnc3ccc(OCC4CCNCC4)cc32)cc1OCc1ccccc1C(F)(F)F [Com. Ex 143, reference compound]
PLK1 kinase domain
  IC50: 10 to 1000 nM
HCT116; [3]
  IC50: 0.1 to 1 µM
H460; [4]
  IC50: > 1 µM
MCF7; [5]
  IC50: 0.1 to 1 µM
A549; [6]
  IC50: > 1 µM
RKO; [7]
  IC50: 0.1 to 1 µM
[1]; [8]
  IC50: > 1 µM
Human plasma proteins
  fraction unbound at 6 h, 2000 ng/mL: > 0.05
[2]
  solubility at 24 h: < 30 µM
